One assay concerns the target T1, HIV-1 protease (Q7S) (Human immunodeficiency virus type 1 group M subtype B, UniProt P04585, Q495S).
T1 construct: made in house
In words: HIV-1 Protease RET Assay. Format: biochemical. The procedure: Ki's for the inhibitors of HIV-1 protease were determined using a resonance energy transfer (RET) assay. […] This enzyme is first partially purified as inclusion bodies from cell lysate. It is then solublized in 8M urea and passed through a Q-Sepharose column (Pharmacia) for further purification. To refold this protein, samples containing Q7S is dialyzed into 50 mM sodium phosphate pH 7.0, 50 mM NaCl, 10 mM DTT, and 10% glycerol.
The commercially available peptide substrate (Molecular Probes Cat. # H-2930) RE(EDANS)SQNYPIVQK(DABCYL)R is used to assess activity and Ki's. This peptide is cleaved quantitatively by HIV-1 Pr at the Tyr-Pro bond. The EDANS fluorophore absorbs at 340 nm and emits at 490 nm. The reaction is carried out in a 96 well plate in a total volume of 100 μL and is run for 12 minutes at 37 C under steady-state conditions with 5 μM substrate and 2 nM active dimer enzyme concentration. The literature value Km for this substrate and enzyme is 103+/−8 μM (See Matayoshi, et al., “Novel Fluorogenic Substrates for Assaying Retroviral Proteases by Resonance Energy Transfer,” Science 247, 954 (1990)). The buffer for this reaction is 0.1M sodium acetate pH 4.8, 1M NaCl, 1 mM EDTA, 5 mM dithiothreitol, 10% dimethyl sulfoxide and 1 mg/ml bovine serum albumin. Inhibition curves are fit using the Morrison tight binding equation.

A further assay has as its system HIV-1. Kind of assay: Cytopathic Effect (CPE) Inhibition Assay (XTT dye reduction). Format: cell-based. The method, then: T-cell lines, CEM-SS, and MT-2, and viruses HIV-1 RF and HIV-1 NL4–3 (pNL4–3) were obtained from the National Institutes of Health (AIDS Research and Reference Reagent Program, Bethesda, Md.).
The ability of compounds to protect cells against HIV infection was measured by the […] dye reduction method, essentially as described (See Pauwels, R. Balzarini, J. Baba, M. Snoeck, R. Schols, D. Herdewijn, P. Desmyter, J. and De Clercq, E. 1988, “Rapid and automated tetrazolium-based colorimetric assay for the detection of anti-HIV compounds,”. J Virol Methods., 20: 309–321 and Weislow, O. S. Kiser, R. Fine, D. L. Bader, J. Shoemaker, R. H. and Boyd, M. R. 1989. “New soluble-formazan assay for HIV-1 cytopathic effects: application to high-flux screening of synthetic and natural products for AIDS-antiviral activity”. J. Natl. Cancer Inst. 81:577–586). Subject cells were infected with test virus at an moi of 0.025 to 0.819 or mock infected with medium only and added at 2×10^4 cells per well into 96 well plates containing half-log dilutions of test compounds. Six days later, 50 μl of XTT (1 mg/ml XTT tetrazolium, […] phenazine methosulfate) was added to the wells and the plate was reincubated for four hours. Viability, as determined by the amount of XTT formazan produced, was quantified spectrophotometrically by absorbance at 450 nm. Data from CPE assays were expressed as the percent of formazan produced in compound-treated cells compared to formazan produced in wells of uninfected, compound-free cells. The fifty percent effective concentration (EC50) was calculated as the concentration of compound that effected an increase in the percentage of formazan production in infected, compound-treated cells to 50% of that produced by uninfected, compound-free cells. The 50% cytotoxicity concentration (CC50) was calculated as the concentration of compound that decreased the percentage of formazan produced in uninfected, compound-treated cells to 50% of that produced in uninfected, compound-free cells. The therapeutic index was calculated by dividing the cytotoxicity (CC50) by the antiviral activity (EC50).
For orientation: Damage to the host cells serves as the signal in cytopathic effect assays.

Setting [1] is: Ave. Ki (nM), RET assay, Q7S enzyme, pH 4.8, 37 C.
The mark [2] stands for this setting: Human immunodeficiency virus 1, 144 h, read-out: Ave CPE EC50 (mM).
The mark [3] stands for this setting: Ki, table of drawn compounds, unit inferred.

Where two headings read alike, the source gives them in different places.

Usually Ki stands for a measure of affinity in units of concentration, obtained from inhibition or displacement. A higher Ki goes with lower affinity. By EC50 is commonly meant the concentration that produces a half-maximal response. `Cc1ccccc1CNC(=O)[C@H]1N(C(=O)[C@@H](O)[C@H](Cc2ccccc2)NC(=O)c2cccc(F)c2C)COC1(C)C` [Example C11, (S)-3-((2S,3S)-3-{[1-(3-Fluoro-2-methyl-phenyl)-methanoyl]-amino}-2-hydroxy-4-phenyl-butanoyl)-5,5-dimethyl-oxazolidine-4-carboxylic acid 2-methyl-benzylamide] displayed a Ki on HIV-1 protease (Q7S) (setting [1]) of 1.1 nM. In the assay on HIV-1 (setting [2]), the EC50 stood at 1560 nM.
`C=CCN(C)C(=O)[C@H]1N(C(=O)[C@@H](O)[C@H](Cc2ccccc2)NC(=O)c2ccno2)CSC1(C)C` yielded a Ki on HIV-1 protease (Q7S) (setting [3]) of 24.6 nM. In the assay on HIV-1 (Human immunodeficiency virus 1), this molecule yielded an EC50 of 4950 nM.
Molecule `Cc1c(O)cccc1C(=O)N[C@@H](Cc1ccccc1)[C@H](O)C(=O)N1CSC(C)(C)[C@H]1C(=O)NCC(=O)c1ccccc1` [Example A10, (R)-3-((2S,3S)-2-Hydroxy-3-{[1-(3-hydroxy-2-methyl-phenyl)-methanoyl]-amino}-4-phenyl-butanoyl)-5,5-dimethyl-thiazolidine-4-carboxylic acid (2-oxo-2-phenyl-ethyl)-amide] showed a Ki at HIV-1 protease (Q7S) (setting [1]) of 51 nM. In addition, the 50% effective concentration (EC50) in the assay on HIV-1 (setting [2]) is more than 1000 nM.
Take `COc1ccc(CNC(=O)[C@H]2N(C(=O)[C@@H](O)[C@H](Cc3ccccc3)NC(=O)c3cccc(O)c3C)CSC2(C)C)cc1` [Example A6, (R)-3-((2S,3S)-2-Hydroxy-3-{[1-(3-hydroxy-2-methyl-phenyl)-methanoyl]-amino}-4-phenyl-butanoyl)-5,5-dimethyl-thiazolidine-4-carboxylic acid 4-methoxy-benzylamide]: the Ki at HIV-1 protease (Q7S) (setting [1]) came to 0.22 nM. Besides, in the assay with HIV-1 (setting [2]), the EC50 was found to be 36 nM.
On HIV-1 protease (Q7S) (setting [3]), `Cc1c(O)cccc1C(=O)N[C@@H](Cc1ccccc1)[C@H](O)C(=O)N1CSC(C)(C)[C@H]1C(=O)NCc1cccc(OCC(C)C)c1` yielded a Ki of 1.1 nM. This molecule came in with an EC50 in the assay with HIV-1 (Human immunodeficiency virus 1) of 1110 nM.
As to `Cc1ccccc1CNC(=O)[C@H]1N(C(=O)[C@@H](O)[C@H](Cc2ccccc2)NC(=O)c2c(C)noc2C)CSC1(C)C` [Example B10, 3,5-Dimethyl-isoxazole-4-carboxylic acid {(1S,2S)-1-benzyl-3-[(R)-5,5-dimethyl-4-(2-methyl-benzylcarbamoyl)-thiazolidin-3-yl]-2-hydroxy-3-oxo-propyl}-amide], the Ki at HIV-1 protease (Q7S) (setting [1]) is less than 0.1 nM. The EC50 in the assay on HIV-1 (setting [2]) worked out at 1100 nM.
For the molecule `Cc1c(O)cccc1C(=O)N[C@@H](Cc1ccccc1)[C@H](O)C(=O)N1CSC(C)(C)[C@H]1C(=O)NCc1ccc(F)cc1C(F)(F)F` [Example A12], affinity at HIV-1 protease (Q7S) (setting [1]) was put at a Ki of 1.7 nM. Also, the EC50 in the assay on HIV-1 (setting [2]) stood at 1090 nM.
In the same order, the values of `Cc1noc(C)c1C(=O)NC(Cc1ccccc1)C(O)C(=O)N1CSC(C)(C)C1C(=O)NCc1c(F)cccc1F` (stereo not drawn) [Example B25, 3,5-Dimethyl-isoxazole-4-carboxylic acid {1-benzyl-3-[4-(2,6-difluoro-benzylcarbamyl)-5,5-dimethyl-thiazolidin-3-yl]-2-hydroxy-3-oxo-propyl}-amide] are 2.7 nM and 1790 nM.
On the same counts, the results for `Cn1cccc1C(=O)N[C@@H](Cc1ccccc1)[C@H](O)C(=O)N1CSC(C)(C)[C@H]1C(=O)NCc1c(F)cccc1F` [Example B24, 3-{2-Hydroxy-3-[(1-methyl-1H-pyrrole-2-carbonyl)-amino]-4-phenyl-butyryl}-5,5-dimethyl-thiazolidine-4-carboxylic acid 2,6-difluoro-benzylamide] are 5.5 nM and 2320 nM.
In turn, `CCCOc1cccc(CNC(=O)[C@H]2N(C(=O)[C@@H](O)[C@H](Cc3ccccc3)NC(=O)c3cccc(O)c3C)CSC2(C)C)c1` [Example A43, (R)-3-((2S,3S)-2-Hydroxy-3-{[1-(3-hydroxy-2-methyl-phenyl)-methanoyl]-amino}-4-phenyl-butanoyl)-5,5-dimethyl-thiazolidine-4-carboxylic acid 3-propoxy-benzylamide] displayed a Ki on HIV-1 protease (Q7S) (setting [1]) of 0.35 nM. Also, in the assay with HIV-1 (setting [2]), the EC50 turned out to be 561 nM.
`COc1cccc(CNC(=O)[C@H]2N(C(=O)[C@@H](O)[C@H](Cc3ccccc3)NC(=O)c3ccc(C)c(O)c3C)CSC2(C)C)c1` gave a Ki on HIV-1 protease (Q7S) (setting [3]) of 3.7 nM. A half-maximal effect with HIV-1 (Human immunodeficiency virus 1) (EC50) was put at 1330 nM.
At HIV-1 protease (Q7S) (setting [1]), `Cc1c(O)cccc1C(=O)N[C@@H](Cc1ccccc1)[C@H](O)C(=O)N1CSC(C)(C)[C@H]1C(=O)NC/C=C/C(F)(F)F` [Example A40, (R)-3-((2S,3S)-2-Hydroxy-3-{[1-(3-hydroxy-2-methyl-phenyl)-methanoyl]-amino}-4-phenyl-butanoyl)-5,5-dimethyl-thiazolidine-4-carboxylic acid ((E)-4,4,4-trifluoro-but-2-enyl)-amide] registered a Ki of 1.2 nM. For the same molecule, the EC50 in the assay on HIV-1 (setting [2]) came out at 275 nM.
Consider `CCCNC(=O)[C@H]1N(C(=O)[C@@H](O)[C@H](Cc2ccccc2)NC(=O)c2cccc(F)c2C)CSC1(C)C` [Example B31, (R)-3-((2S,3S)-3-{[1-(3-Fluoro-2-methyl-phenyl)-methanoyl]-amino}-2-hydroxy-4-phenyl-butanoyl)-5,5-dimethyl-thiazolidine-4-carboxylic acid propylamide], for which the Ki at HIV-1 protease (Q7S) (setting [1]) stood at 1.5 nM. Besides, the EC50 in the assay on HIV-1 (setting [2]) stood at 1320 nM.
In turn, `Cc1ccccc1CNC(=O)[C@H]1N(C(=O)[C@@H](O)[C@H](Cc2ccccc2)NC(=O)c2ccon2)CSC1(C)C` [Example B3, Isoxazole-3-carboxylic acid {(1S,2S)-1-benzyl-3-[(R)-5,5-dimethyl-4-(2-methyl-benzylcarbamoyl)-thiazolidin-3-yl]-2-hydroxy-3-oxo-propyl}-amide] displayed a Ki at HIV-1 protease (Q7S) (setting [1]) of 4 nM. Besides, the 50% effective concentration (EC50) in the assay on HIV-1 (setting [2]) worked out at 409 nM.
At HIV-1 protease (Q7S) (setting [1]), `Cc1c(O)cccc1C(=O)N[C@@H](Cc1ccccc1)[C@H](O)C(=O)N1CSC(C)(C)[C@H]1C(=O)NCc1cccc(N)c1` [Example A29, (R)-3-((2S,3S)-2-Hydroxy-3-{[1-(3-hydroxy-2-methyl-phenyl)-methanoyl]-amino}-4-phenyl-butanoyl)-5,5-dimethyl-thiazolidine-4-carboxylic acid 3-amino-benzylamide] had a Ki of less than 0.1 nM. For the same molecule, in the assay on HIV-1 (setting [2]), the EC50 was 117 nM.
In the same order, the values of `Cc1c(O)cccc1C(=O)N[C@@H](Cc1ccccc1)[C@H](O)C(=O)N1CSC(C)(C)[C@H]1C(=O)NCc1ccc(S(C)(=O)=O)cc1` [Example A13, 3-[2-Hydroxy-3-(3-hydroxy-2-methyl-benzoylamino)-4-phenyl-butyryl]-5,5-dimethyl-thiazolidine-4-carboxylic acid 4-methanesulfonyl-benzamide] are 44.1 nM and more than 1000 nM.
Regarding `Cc1ccccc1CNC(=O)[C@H]1N(C(=O)[C@@H](O)[C@H](Cc2ccccc2)NC(=O)c2cc(Cl)on2)CSC1(C)C` [Example B4, 5-Chloro-isoxazole-3-carboxylic acid {(1S,2S)-1-benzyl-3-[(R)-5,5-dimethyl-4-(2-methyl-benzylcarbamoyl)-thiazolidin-3-yl]-2-hydroxy-3-oxo-propyl}-amide], the affinity on HIV-1 protease (Q7S) (setting [1]), expressed as Ki, was 1.7 nM. For the same molecule, in the assay with HIV-1 (setting [2]), the EC50 was found to be 551 nM.
`C=C(C)CNC(=O)[C@H]1N(C(=O)[C@@H](O)[C@H](Cc2ccccc2)NC(=O)c2cccc(O)c2C)CSC1(C)C` [Example A28, (R)-3-((2S,3S)-2-Hydroxy-3-{[1-(3-hydroxy-2-methyl-phenyl)-methanoyl]-amino}-4-phenyl-butanoyl)-5,5-dimethyl-thiazolidine-4-carboxylic acid (2-methyl-allyl)-amide] displayed an inhibitory constant (Ki) on HIV-1 protease (Q7S) (setting [1]) of less than 0.1 nM. Moreover, in the assay on HIV-1 (setting [2]), the 50% effective concentration (EC50) came out at 41 nM.

The values are drawn from patent US7169932B2 (priority 2001, dated 2007).
